Structures can show the parent of a compound that is named as a salt. Where two headings read alike, the source gives them in different places.
What was measured:
Format in all cases: cell-based
Xenopus laevis VDR = molecular target: T1, Xenopus laevis VDR (Xenopus laevis, UniProt O13124); assay: luciferase reporter transactivation assay in HepG2-NTCP cells, GAL4/xlVDR LBD chimera with tk-UAS-Luc; conditions: screening for activators, at least three concentrations of each drug
T1 sequence (O13124 90-422): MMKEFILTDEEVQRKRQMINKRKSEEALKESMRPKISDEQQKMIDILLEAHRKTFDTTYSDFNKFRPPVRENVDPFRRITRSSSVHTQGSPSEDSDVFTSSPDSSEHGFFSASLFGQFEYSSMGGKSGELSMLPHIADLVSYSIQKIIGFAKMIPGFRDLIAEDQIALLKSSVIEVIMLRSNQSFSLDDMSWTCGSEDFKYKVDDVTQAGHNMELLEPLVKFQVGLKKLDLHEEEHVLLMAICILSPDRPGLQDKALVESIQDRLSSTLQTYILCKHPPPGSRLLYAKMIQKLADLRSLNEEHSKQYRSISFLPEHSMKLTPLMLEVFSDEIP

Zebrafish VDR = molecular target: T2, Zebrafish VDR (Danio rerio, UniProt Q9PTN2); assay: luciferase reporter transactivation assay in HepG2-NTCP cells, GAL4/zfVDR LBD chimera with tk-UAS-Luc; conditions: screening for activators, at least three concentrations of each drug
T2 sequence (Q9PTN2 121-453): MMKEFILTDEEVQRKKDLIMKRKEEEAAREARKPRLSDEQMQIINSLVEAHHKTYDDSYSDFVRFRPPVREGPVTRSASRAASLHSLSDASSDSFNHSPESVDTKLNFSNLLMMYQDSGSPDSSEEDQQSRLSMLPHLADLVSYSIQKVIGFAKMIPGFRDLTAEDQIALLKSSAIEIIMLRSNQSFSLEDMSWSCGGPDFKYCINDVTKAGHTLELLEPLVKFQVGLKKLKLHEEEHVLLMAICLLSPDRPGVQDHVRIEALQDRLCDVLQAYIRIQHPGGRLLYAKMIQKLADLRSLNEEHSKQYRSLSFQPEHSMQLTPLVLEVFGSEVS

Sea lamprey VDR = molecular target: T3, Sea lamprey VDR (Petromyzon marinus, UniProt Q7ZZY9)
T3 sequence (Q7ZZY9 92-406): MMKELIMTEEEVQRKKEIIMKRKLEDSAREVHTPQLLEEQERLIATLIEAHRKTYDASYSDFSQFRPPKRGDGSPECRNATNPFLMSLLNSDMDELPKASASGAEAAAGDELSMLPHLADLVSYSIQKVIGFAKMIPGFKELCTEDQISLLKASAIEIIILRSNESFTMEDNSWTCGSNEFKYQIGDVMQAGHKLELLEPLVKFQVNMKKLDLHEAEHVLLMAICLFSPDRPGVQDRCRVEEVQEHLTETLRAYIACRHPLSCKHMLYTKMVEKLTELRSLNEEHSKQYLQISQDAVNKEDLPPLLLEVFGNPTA

[1] = screening for activators, at least three concentrations of each drug

Structure (SMILES) | Effect on Xenopus laevis VDR (Xenopus laevis VDR) | Effect on zebrafish VDR (Zebrafish VDR) | Effect on sea lamprey VDR (Sea lamprey VDR; [1]) | Effect on sea lamprey VDR (Sea lamprey VDR) | Effect on Xenopus laevis VDR (Xenopus laevis VDR; listed as 17β-estradiol) | Effect on zebrafish VDR (Zebrafish VDR; listed as 17β-estradiol) | Effect on sea lamprey VDR (Sea lamprey VDR; screening for activators, at least three concentrations of each drug, listed as 17β-estradiol)
C[C@]12CC[C@@H](O)C[C@H]1CC[C@@H]1[C@@H]2C(=O)C[C@]2(C)C(=O)CC[C@@H]12 [5b-Androstan-3a-ol-11,17-one] | No effect | No effect | No effect | – | – | – | –
C[C@@]12CCC[C@H]1[C@@H]1CC[C@@H]3C[C@@H](O)CC[C@]3(C)[C@H]1CC2 [5b-Androstan-3b-ol] | No effect | No effect | No effect | – | – | – | –
C[C@H](CCCO)[C@H]1CC[C@H]2[C@@H]3[C@H](O)C[C@@H]4C[C@H](O)CC[C@]4(C)[C@H]3C[C@H](O)[C@]12C [5b-Cholan-3a,7a,12a,24-tetrol] | No effect | No effect | No effect | – | – | – | –
CCC[C@@H](C)[C@H]1CC[C@H]2[C@@H]3[C@H](O)C[C@@H]4C[C@H](O)CC[C@]4(C)[C@H]3C[C@H](O)[C@]12C [5b-Cholan-3a,7a,12a-triol] | No effect | No effect | No effect | – | – | – | –
C[C@H](CCC(=O)O)[C@H]1CC[C@H]2[C@@H]3C[C@H](O)[C@@H]4C[C@H](O)CC[C@]4(C)[C@H]3CC[C@]12C [5b-Cholanic acid-3a,6a-diol] | No effect | No effect | – | No effect | – | – | –
C[C@H](CCC(=O)O)[C@H]1CC[C@H]2[C@@H]3C[C@@H](O)[C@@H]4C[C@H](O)CC[C@]4(C)[C@H]3CC[C@]12C [5b-Cholanic acid-3a,6b-diol] | No effect | No effect | – | No effect | – | – | –
CC(=O)[C@H]1CC[C@H]2[C@@H]3CC[C@@H]4CC(=O)CC[C@]4(C)[C@H]3CC[C@]12C [5b-Pregnan-3,20-dione] | No effect | No effect | No effect | – | – | – | –
C[C@H](O)[C@H]1CC[C@H]2[C@@H]3CC[C@@H]4C[C@H](O)CC[C@]4(C)[C@H]3CC[C@]12C [5b-Pregnan-3a,20a-diol] | No effect | No effect | No effect | – | – | – | –
C[C@@H](O)[C@H]1CC[C@H]2[C@@H]3CC[C@@H]4C[C@H](O)CC[C@]4(C)[C@H]3CC[C@]12C [5b-Pregnan-3a,20b,diol] | No effect | No effect | No effect | – | – | – | –
CC(=O)[C@H]1CC[C@H]2[C@@H]3CC[C@@H]4C[C@H](O)CC[C@]4(C)[C@H]3CC[C@]12C [5b-Pregnan-3a-ol-20-one] | No effect | No effect | No effect | – | – | – | –
CC(C)CCC[C@@H](C)[C@H]1CC[C@H]2[C@@H]3CC[C@@H]4C[C@H](OS(=O)(=O)O)CC[C@]4(C)[C@H]3CC[C@]12C [5b-cholestan-3a-ol sulfate] | No effect | No effect | No effect | – | – | – | –
CC(=O)[C@H]1CC[C@H]2[C@@H]3CC[C@@H]4C[C@H](OS(=O)(=O)O)CC[C@]4(C)[C@H]3CC[C@]12C [5b-pregnan-3a-ol-20-one sulfate] | No effect | No effect | No effect | – | – | – | –
C[C@]12CC[C@H]3[C@@H](C[C@H](F)C4=CC(=O)CC[C@@]43C)[C@@H]1CC[C@@H]2O [6a-Fluorotestosterone] | No effect | No effect | No effect | – | – | – | –
C[C@H](CCC(=O)O)[C@H]1CC[C@H]2[C@@H]3C(=O)C[C@@H]4C[C@H](O)CC[C@]4(C)[C@H]3CC(=O)[C@]12C [7,12-Diketolithocholic acid] | No effect | No effect | No effect | – | – | – | –
C[C@H](CCC(=O)O)[C@H]1CC[C@H]2[C@@H]3C(=O)C[C@@H]4C[C@H](O)CC[C@]4(C)[C@H]3C[C@H](O)[C@]12C [7-Ketodeoxycholic acid] | No effect | No effect | No effect | – | – | – | –
C[C@H](CCC(=O)O)[C@H]1CC[C@H]2[C@@H]3C(=O)C[C@@H]4C[C@H](O)CC[C@]4(C)[C@H]3CC[C@]12C [7-Ketolithocholic acid] | No effect | No effect | No effect | – | – | – | –
CC1=C(/C=C/C(C)=C\C=C\C(C)=C\C(=O)O)C(C)(C)CCC1 [9-cis Retinoic acid] | No effect | No effect | No effect | – | – | – | –
C[C@H](CCC(=O)O)[C@H]1CC[C@H]2[C@@H]3CC[C@@H]4C[C@H](O)CC[C@]4(C)[C@H]3CC(=O)[C@]12C [12-Ketolithocholic acid] | No effect | No effect | No effect | – | – | – | –
CCCCC[C@H](O)/C=C/C=C\CCCCCCCC(=O)O [13(S)-Hydroxy-9Z,11E-octadecadienoic acid] | No effect | No effect | No effect | – | – | – | –
CC1=C(/C=C/C(C)=C/C=C/C(C)=C\C(=O)O)C(C)(C)CCC1 [13-cis Retinoic acid] | No effect | No effect | No effect | – | – | – | –
CC1=C(/C=C/C(C)=C/C=C/C(C)=C\CO)C(C)(C)CCC1 [13-cis-Retinol] | No effect | No effect | No effect | – | – | – | –
CCCCC/C=C/C=C1/C(=O)C=C[C@@H]1C/C=C\CCCC(=O)O [15-Deoxy-D12,14-prostaglandin J2] | No effect | No effect | No effect | – | – | – | –
C[C@]12CCC(=O)C[C@@H]1CC[C@@H]1[C@@H]2CC[C@]2(C)C=CC[C@@H]12 [16,(5a)-Androsten-3-one] | No effect | No effect | No effect | – | – | – | –
C[C@]12CC[C@H](O)C[C@@H]1CC[C@@H]1[C@@H]2CC[C@]2(C)C=CC[C@@H]12 [16,(5a)-Androsten-3b-ol] | No effect | No effect | No effect | – | – | – | –
C[C@]12CC[C@@H]3c4ccc(O)cc4CC[C@H]3[C@@H]1C[C@@H](O)C2=O [16a-Hydroxyestrone] | No effect | No effect | No effect | – | – | – | –
CC(=O)[C@@]1(O)CC[C@H]2[C@@H]3CC=C4C[C@@H](O)CC[C@]4(C)[C@H]3CC[C@@]21C [17-Hydroxypregnenolone] | No effect | No effect | No effect | – | – | – | –
C[C@]12CC[C@@H]3c4ccc(O)cc4CC[C@H]3[C@@H]1CC[C@@H]2O [17b-Estradiol, 17β-estradiol] | No effect | No effect | No effect | – | None of these three VDRs were activated | None of these three VDRs were activated | None of these three VDRs were activated
